Values of other authors, collected in US20090005367A1, “COMPOSITION AND METHOD FOR TREATING ALCOHOLISM AND OTHER SUBSTANCE ADDICTIONS” (priority 2006, published 2009).
Where two headings read alike, the source gives them in different places.

Assays:
[1] = oral / gastrointestinal tract
[2] = not given; remark: listed apart in the source
aldehyde dehydrogenase = conditions: blood, after alcohol ingestion
[3] = not given; remark: listed apart in the source

SMILES	Elimination Half-Life (parent drug) [h]	further results
Fc1ccccc1C1=NCC(=S)N(CC(F)(F)F)c2ccc(Cl)cc21 [Quazepam]	25 to 100	–
CNC1=Nc2ccc(Cl)cc2C(c2ccccc2)=[N+]([O-])C1 [Chlordiazepoxide]	5 to 30	–
O=C1CN=C(c2ccccc2Cl)c2cc([N+](=O)[O-])ccc2N1 [Clonazepam]	18 to 50	absorption [1]: rapidly and completely absorbed; Elimination Half-Life: 30 to 40 h; time until full effects occur after ingestion [2]: 1 to 4 h; duration of action ([2]; in vivo): 30 to 40 h
N#CCCN1C(=O)C(O)N=C(c2ccccc2F)c2cc(Cl)ccc21 (stereo not shown) [Cinolazepam]	9	–
CC1=CC(=O)N2CC(=O)N(C)c3ccc(Cl)cc3C2(c2ccccc2)O1 (stereo not shown) [Ketazolam]	2	–
O=C1CN=C(c2ccccc2)c2cc([N+](=O)[O-])ccc2N1 [Nitrazepam]	15 to 38	–
CN1CCN(/C=C2\N=C3CN=C(c4ccccc4Cl)c4cc([N+](=O)[O-])ccc4N3C2=O)CC1 [Loprazolam]	6 to 12	–
Cc1nnc2n1-c1ccc(Cl)cc1C(c1ccccc1Cl)=NC2 [Triazolam]	2	–
Cc1ncc2n1-c1ccc(Cl)cc1C(c1ccccc1F)=NC2 [Midazolam]	–	Elimination Half-Life (h) (parent drug): 3 hours (1.8-6
CN1CCN=C(c2ccccc2)c2cc(Cl)ccc21 [Medazepam]	36 to 200	–
CCN(CC)C(=S)SSC(=S)N(CC)CC [Disulfiram, bis(diethylthiocarbamoyl)disulfide]	–	concentration of acetaldehyde compared with same amount of alcohol without disulfiram (aldehyde dehydrogenase): 5 to 10 times higher; time until full effects occur after ingestion [2]: 12 h; time effective following administration of the last dose ([2]; after last dose): approximately one to two
Clc1ccc2c(c1)C(c1ccccc1)=NCc1nncn1-2 [Estazolam]	10 to 24	–
O=C1Nc2ccc(Cl)cc2C(c2ccccc2Cl)=NC1O (stereo not shown) [Lorazepam]	10 to 20	–
CN1C(=O)CC(=O)N(c2ccccc2)c2cc(Cl)ccc21 [Clobazam]	12 to 60	–
CN1[C@@H]2CC[C@H]1C[C@@H](OC(=O)C(CO)c1ccccc1)C2 (stereo partly shown) [Atropine]	–	excreted in the urine as unchanged drug [3]: 30-50%
CN1C(=O)C(O)N=C(c2ccccc2Cl)c2cc(Cl)ccc21 (stereo not shown) [Lormetazepam]	10 to 12	–
Cc1nnc2n1-c1ccc(Cl)cc1C(c1ccccc1)=NC2 [Alprazolam]	6 to 12	–
CN1C(=O)CN=C(C2=CCCCC2)c2cc(Cl)ccc21 [Tetrazepam]	3 to 26	–
O=C1CN=C(c2ccccn2)c2cc(Br)ccc2N1 [Bromazepam]	10 to 20	–
